From patent US20160244728A1, “CULTURE METHOD FOR PLURIPOTENT STEM CELLS AND KIT AND MEDIUM FOR CULTURE OF PLURIPOTENT STEM CELLS USED THEREIN” (FUJIFILM Corporation, priority 2013, published 2016) come the findings set out here.

Series [1] deals with human iPS cells. Nature of the series: Cell adhesiveness evaluation 2 (synthetic polypeptides added to cells seeded on natural vitronectin). In kind it is cell-based. Conditions: 100 μM synthetic polypeptide. How it is done:
The polypeptides shown in Table 7 were synthesized by an Fmoc solid-phase synthesis method. A surface onto which natural vitronectin was adsorbed at a concentration of 130 pmol/cm^2 was prepared, and then a cell suspension to which 100 μM of the aforementioned synthetic polypeptides were added was seeded into wells at a ratio of 30,000 cells/well. The number of adhesive cells 24 hours after seeding was calculated in the same manner as in <Cell adhesiveness evaluation 1>, and the results are shown in Table 7. In Table 7, the cell adhesion rate is expressed as a relative value calculated by regarding the cell adhesion rate obtained by using a culture solution not containing the synthetic polypeptides as being 100%. n=3.

Series [2] concerns human iPS cells. Put plainly: Growth evaluation in Essential 8 medium with magnesium ascorbyl phosphate. To be noted: for number of growing cells depending on the concentration of magnesium ascorbyl phosphate (in words): Tables 10 to 13; for Number of cells after 3 days (%): n=3. The class given is cell-based. How it is done:
The growth of cells was evaluated in the same manner as in Reference example 5.
Magnesium ascorbyl phosphate was added to a medium. […] The samples were adsorbed onto a 96-well plate, and the iPS cells collected in the same manner as in <Cell adhesiveness evaluation 1> were seeded into the plate at a ratio of 1×10^4 cells/well and cultured for 3 days in a 5% CO2 incubator at 37° C. The number of cells after 3 days was measured in the same manner as in <Cell adhesiveness evaluation 1>. Furthermore, by using VTN-N (manufactured by Life Technologies) and Vitronectin-XF (manufactured by Primorigen Biosciences), the growth of the cells was evaluated in the same manner.
The results obtained from RCP-17 are shown in Table 10, the results obtained from Human Recombinant Laminin-511 are shown in Table 11, the results obtained from VTN-N (manufactured by Life Technologies) are shown in Table 12, and the results obtained from Vitronectin-XF (manufactured by Primorigen Biosciences) are shown in Table 13. In Tables 10 and 11, the number of cells is expressed as a relative value calculated by regarding the number of cells at the concentration of magnesium ascorbyl phosphate of 0.8 mmol/L as being 100. n=3.

A short description of series [3]: Evaluation of adsorbability with respect to culture dish. The class given is physicochemical. Conditions: FIG. 1. The procedure: Each of the polypeptides obtained as above was diluted with a predetermined buffer such that they could be added to wells at a predetermined final concentration of 0 pmol/cm^2 to 200 pmol/cm^2. Thereafter, each of the polypeptides was added in an amount of 64 μL to a plasma-treated 96-well plate made of polystyrene (Tissue Culture-Treated, Falcon). Each of the polypeptides was allowed to adsorb onto the plate by being incubated for 2 hours at 37° C., and then the wells were washed twice with PBS, thereby obtaining surfaces coated with each of the polypeptides of RCP-1 to RCP-16.
Among the surfaces coated with each of the polypeptides obtained as above, the surfaces coated with RCP-1 and RCP-11 to RCP-16 were applied with 64 μL of a borate buffer and 64 μL of 1 N NaOH, followed by incubation for 24 hours at 80° C. and 100% humidity. After the resultant was air-cooled, 75 μL of a borate buffer was added to each well, and 50 μL of a reaction solution obtained by mixing OPA (o-phthalaldehyde: Wako Pure Chemical Industries, Ltd./methanol solution (160 mg/ml)) with N-acetyl-L-cysteine (NAC: Wako Pure Chemical Industries, Ltd.)/borate buffer solution (2 mg/ml) at a ratio of 1:100 (mass ratio) was further added thereto. After incubation for 30 minutes at 40° C., the fluorescence intensity thereof was measured by using an Envision Multilabel Counter (PerkinElmer Inc.) (excitation 355 nm/fluorescence 486 nm). A calibration curve was separately prepared from each of the polypeptide solutions so as to calculate the amount of the polypeptide adsorbed. In FIG. 1, a black rhombus indicates RCP-1, a black square indicates RCP-11, a black triangle indicates RCP-12, a black circle indicates RCP-13, a white rhombus indicates RCP-14, a white square indicates RCP-15, and a white triangle indicates RCP-16.

In series [4] the test system is human iPS cells. Put plainly: Evaluation of maintenance of undifferentiated state. The class given is cell-based. How it is done:
iPS cells collected in the same manner as in <Cell adhesiveness evaluation 1> were suspended in TeSR2. The iPS cells were seeded into 6-well plate (Tissue culture-treated, Falcon), onto which each of the samples 1, 2, 5, 6, and 7 used in <Cell adhesiveness evaluation 1> was adsorbed in the same manner as in <Cell adhesiveness evaluation 1>, and cultured in a CO2 incubator at 37° C. Except for the day after the seeding, the medium was replaced every day. In the same method as described above, the cells were subcultured every six days. FIGS. 3A to 3E show forms of the iPS cells cultured on each of the samples.
After being cultured for 1 month under the conditions described above, the cells were immobilized using 4% paraformaldehyde and treated with 1% Triton-X/PBS so as to enhance the membrane permeability. After the cells were subjected to a blocking treatment using an Image IT Signal Enhancer (Invitrogen), an anti-human NANOG antibody (AF 1997, R&D Systems, Inc.), an Alexa Fluor 555 binding rabbit anti-goat IgG antibody (Invitrogen), and DAPI (Dojindo Molecular Technologies, Inc.) were added thereto for labeling, and the cells were imaged using a fluorescence microscope. FIGS. 4A to 4E show the fluorescence microscopic images.
FIGS. 3A and 4A show the iPS cells cultured on RCP-1; FIGS. 3B and 4B show the iPS cells cultured on RCP-11; FIGS. 3C and 4C show the iPS cells cultured on natural human vitronectin; FIGS. 3D and 4D show the iPS cells cultured on rLaminin-5; and FIGS. 3E and 4E show the iPS cells cultured on rLaminin-511. The scale bar in the images indicates 100 μm. In FIGS. 3A to 3E, the images on the left side are full images of the colony, and the images on the right side are magnified images. In FIGS. 4A to 4E, the images on the left side are images of the cells stained with DAPI, and the images on the right side are images of the cells stained with an anti-NANOG antibody. The scale bar in FIGS. 3 and 4 indicates 200 μm.

Consider “CCTDYTAECKPQVTRGDVFT [Peptide-5, polypeptide synthesized by an Fmoc solid-phase synthesis method]”, for which, in the series with human iPS cells [1], the “adhesion of cells to the natural vitronectin on addition of the peptide (in words)” value (from here on “adhesion of cells”) is “significantly hindered”.
The same measure, in the same setting: then CCTDYTAECKPQVTRGEVFT [Peptide-7], with “not hindered”.
Still for that read-out and setting: then “DKKCQCDELCSYYQSCCTDY [Peptide-4, polypeptide synthesized by an Fmoc solid-phase synthesis method]”, with “significantly hindered”; and “DQESCKGRCTEGFNVDKKCQ [Peptide-1, polypeptide synthesized by an Fmoc solid-phase synthesis method]”, with “not hindered”; and “EGFNVDKKCQCDELCSYYQS [Peptide-3, polypeptide synthesized by an Fmoc solid-phase synthesis method]”, with “not hindered”.
The same measure, in the same setting: the value for “KGRCTEGFNVDKKCQCDELC [Peptide-2, polypeptide synthesized by an Fmoc solid-phase synthesis method]” was “not hindered”.
Take “Laminin-511: recombinant laminin (Human Recombinant Laminin-511: BIOLAMINA AB), control”: in the series on human iPS cells [2], the “number of growing cells depending on the concentration of magnesium ascorbyl phosphate (in words)” value is given as “does not depend”. In addition, the “Number of cells after 3 days (%)” value in the series on human iPS cells [2] (magnesium ascorbyl phosphate 0.2 mmol/L, added amount 20 μg/cm^3, Table 11, relative to 0.8 mmol/L = 100) was 61%; in the series on human iPS cells [2] (magnesium ascorbyl phosphate 0.5 mmol/L, added amount 20 μg/cm^3, Table 11, relative to 0.8 mmol/L = 100), 79%; in the series on human iPS cells [2] (magnesium ascorbyl phosphate 0.8 mmol/L, added amount 20 μg/cm^3, Table 11, reference = 100), 100%; in the series on human iPS cells [2] (magnesium ascorbyl phosphate 1.6 mmol/L, added amount 20 μg/cm^3, Table 11, relative to 0.8 mmol/L = 100), 90%; with human iPS cells [2] (magnesium ascorbyl phosphate 3.7 mmol/L, added amount 20 μg/cm^3, Table 11, relative to 0.8 mmol/L = 100), 114%; with human iPS cells [2] (magnesium ascorbyl phosphate 9.1 mmol/L, added amount 20 μg/cm^3, Table 11, relative to 0.8 mmol/L = 100) it was 100%. Also, the “Number of cells after 3 days (%)” value in the series on human iPS cells [2] (magnesium ascorbyl phosphate 18.1 mmol/L, added amount 20 μg/cm^3, Table 11, relative to 0.8 mmol/L = 100) was found to be 112%.
On to “RCP-14: recombinant polypeptide, human vitronectin positions 1-55 (GPLGDQESCKGRCTEGFNVDKKCQCDELCSYYQSCCTDYTAECKPQVTRGDVFTMPEDE; Synthetic Peptide RCP-14)”, for which the “amount adsorbed onto the plate relative to the polypeptide including SEQ ID NO: 3” value in series [3] is recorded as “about 1/4”.
For “TAECKPQVTRGDVFTMPEDE [Peptide-6, polypeptide synthesized by an Fmoc solid-phase synthesis method]”, in the series with human iPS cells [1], the “adhesion of cells” value is listed as “significantly hindered”.
TAECKPQVTRGEVFTMPEDE [Peptide-8]: the “adhesion of cells” value with human iPS cells [1] was “not hindered”.

B1: Natural vitronectin: human vitronectin (extracted from human serum, BD Biosciences), control (protein, listed as Homo sapiens)
chain: DQESCKGRCTEGFNVDKKCQCDELCSYYQSCCTDYTAECKPQVTRGDVFTMPEDEYTVYDDGEEKNNATVHEQVGGPSLTSDLQAQSKGNPEQTPVLKPEEEAPAPEVGASKPEGIDSRPETLHPGRPQPPAEEELCSGKPFDAFTDLKNGSLFAFRGQYCYELDEKAVRPGYPKLIRDVWGIEGPIDAAFTRINCQGKTYLFKGSQYWRFEDGVLDPDYPRNISDGFDGIPDNVDAALALPAHSYSGRERVYFFKGKQYWEYQFQHQPSQEECEGSSLSAVFEHFAMMQRDSWEDIFELLFWGRTSAGTRQPQFISRDWHGVPGQVDAAMAGRIYISGMAPRPSLAKKQRFRHRNRKGYRSQRGHSRGRNQNSRRPSRATWLSLFSSEESNLGANNYDDYRMDWLVPATCEPIQSVFFFSGDKYYRVNLRTRRVDTVDPPYPRSIAQYWLGCPAPGHL
In the case of B1, the “form of the iPS cell colony” value in the series on human iPS cells [4] (FIGS. 3A to 3E, TeSR2, subcultured every six days) is on record as “form specific to undifferentiated cells”. Also, the “maintenance of the undifferentiated state (NANOG staining)” value with human iPS cells [4] (FIGS. 4A to 4E, after culture for 1 month) is “strongly expressed NANOG in the entirety of the colony”.

B2: RCP-17: recombinant polypeptide, human vitronectin positions 1-55, 269-277, 295-341, 342-373, C274S (protein)
chain: MDQESCKGRCTEGFNVDKKCQCDELCSYYQSCCTDYTAECKPQVTRGDVFTMPEDESQEESEGSEDIFELLFWGRTSAGTRQPQFISRDWHGVPGQVDAAMAGRIYISGMAPRPSLAKKQRFRHRNRKGYRSQRGHSRGRNQN
modifications: Synthetic Peptide RCP-17
notes: recombinant polypeptide, human vitronectin positions 1-55, 269-277, 295-341, 342-373, C274S
With B2, the “number of growing cells depending on the concentration of magnesium ascorbyl phosphate (in words)” value in the series with human iPS cells [2] is listed as “increases”. Besides, the “Number of cells after 3 days (%)” value came to 114% in the series on human iPS cells [2] (magnesium ascorbyl phosphate 0.2 mmol/L, added amount 100 μg/cm^3, 1×10^4 cells/well, relative to 0.8 mmol/L = 100); 98% in the series with human iPS cells [2] (magnesium ascorbyl phosphate 0.5 mmol/L, added amount 100 μg/cm^3, 1×10^4 cells/well, relative to 0.8 mmol/L = 100); 100% with human iPS cells [2] (magnesium ascorbyl phosphate 0.8 mmol/L, added amount 100 μg/cm^3, 1×10^4 cells/well, reference = 100); 145% in the series on human iPS cells [2] (magnesium ascorbyl phosphate 1.6 mmol/L, added amount 100 μg/cm^3, 1×10^4 cells/well, relative to 0.8 mmol/L = 100); 219% in the series with human iPS cells [2] (magnesium ascorbyl phosphate 3.7 mmol/L, added amount 100 μg/cm^3, 1×10^4 cells/well, relative to 0.8 mmol/L = 100); 212% in the series with human iPS cells [2] (magnesium ascorbyl phosphate 9.1 mmol/L, added amount 100 μg/cm^3, 1×10^4 cells/well, relative to 0.8 mmol/L = 100). In addition, the “Number of cells after 3 days (%)” value was 204% in the series on human iPS cells [2] (magnesium ascorbyl phosphate 18.1 mmol/L, added amount 100 μg/cm^3, 1×10^4 cells/well, relative to 0.8 mmol/L = 100) and 230% in the series with human iPS cells [2] (magnesium ascorbyl phosphate 36.0 mmol/L, added amount 100 μg/cm^3, 1×10^4 cells/well, relative to 0.8 mmol/L = 100).
